# Source: US6500669B1, “Programmable genotoxic agents and uses therefor” (Massachusetts Institute of Technology, priority 1994, dated 2002)
# Where two headings read alike, the source gives them in different places.
# How the values were obtained:
# [1] = target: T1, hUBF (Homo sapiens, UniProt P17480); experiment: Southwestern blotting of hUBF with platinated DNA probes; assay type: binding; settings: southwestern and western blot; DNA globally modified by the platinum compound
# T1 construct: made in house; host or cells: in vitro transcription and translation (cell-free) from plasmid pTbGUBF1
# T1 sequence (P17480 1-764): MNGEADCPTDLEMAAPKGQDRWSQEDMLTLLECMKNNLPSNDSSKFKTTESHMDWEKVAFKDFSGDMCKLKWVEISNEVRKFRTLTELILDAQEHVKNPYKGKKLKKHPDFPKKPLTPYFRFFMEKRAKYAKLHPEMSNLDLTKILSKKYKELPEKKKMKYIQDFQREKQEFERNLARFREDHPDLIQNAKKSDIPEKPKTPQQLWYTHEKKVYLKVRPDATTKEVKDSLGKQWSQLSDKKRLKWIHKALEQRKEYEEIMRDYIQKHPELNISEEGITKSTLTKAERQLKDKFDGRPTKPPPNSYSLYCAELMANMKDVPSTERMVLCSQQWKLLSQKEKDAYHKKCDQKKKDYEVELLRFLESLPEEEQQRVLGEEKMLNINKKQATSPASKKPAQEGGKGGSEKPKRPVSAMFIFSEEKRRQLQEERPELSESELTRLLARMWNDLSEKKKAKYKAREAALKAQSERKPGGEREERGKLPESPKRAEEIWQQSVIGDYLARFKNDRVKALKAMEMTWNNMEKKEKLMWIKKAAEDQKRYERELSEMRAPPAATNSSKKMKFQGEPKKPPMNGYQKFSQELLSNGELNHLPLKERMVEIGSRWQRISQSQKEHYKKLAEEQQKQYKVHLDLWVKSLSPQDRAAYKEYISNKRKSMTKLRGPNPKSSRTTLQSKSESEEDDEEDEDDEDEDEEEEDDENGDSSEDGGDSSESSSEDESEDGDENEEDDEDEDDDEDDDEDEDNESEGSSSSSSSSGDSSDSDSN
# Description: Probe Preparation. The DNA probe used for southwestern blotting was a 422 base pair (bp) AvaI restriction fragment excised from M13mp19 replicative form DNA. Platinated probes were prepared by treating the AvaI-digested DNA with cisplatin or trans-DDP, and the formal bound drug/nucleotide ratios (rb) were determined by using atomic absorption spectroscopy as described in Donahue et al. (1990), 29 Biochemistry 5872-5880.
# Western and Southwestern Blotting Technique. HeLa whole cell extracts (WCE) were prepared by the sonication procedure of Samson et al. (1986), 83 Proc. Natl. Acad. Sci. U.S.A. 5607-5610. The 97 kDa hUBF species was synthesized by in vitro transcription and translation from the plasmid pTbGUBF1 as reported in Jantzen et al. (1992), 6 Genes & Dev. 1950-1963. In vitro translated hUBF was quantitated by the incorporation of ^35S-methionine. Protein samples ([…] WCE or 8 ng hUBF) were resolved on 5-15% gradient SDS polyacrylamide gels and transferred to nitrocellulose membranes. Parallel blots of HeLa whole cell extracts (WCE) and in vitro translated hUBF (hUBF) were probed with various ^32P labeled DNA fragments (southwestern analysis, panels A-C of FIG. 2) or antiserum against hUBF (Anti-NOR-90) (panel D of FIG. 2). For southwestern analysis, the air dried membranes were processed as reported in Toney et al. (1989), 86 Proc. Natl. Acad. Sci. U.S.A. 8328-8332. […]
# [2] = target: T2, estrogen receptor (ER) (Bos taurus, UniProt P49884); assay type: binding, calf
# T2 construct: uterine cytosol was prepared by homogenizing calf uteri; from tissue; host or cells: calf uterus, cytosol (105,000 g supernatant)
# T2 sequence (P49884 1-596): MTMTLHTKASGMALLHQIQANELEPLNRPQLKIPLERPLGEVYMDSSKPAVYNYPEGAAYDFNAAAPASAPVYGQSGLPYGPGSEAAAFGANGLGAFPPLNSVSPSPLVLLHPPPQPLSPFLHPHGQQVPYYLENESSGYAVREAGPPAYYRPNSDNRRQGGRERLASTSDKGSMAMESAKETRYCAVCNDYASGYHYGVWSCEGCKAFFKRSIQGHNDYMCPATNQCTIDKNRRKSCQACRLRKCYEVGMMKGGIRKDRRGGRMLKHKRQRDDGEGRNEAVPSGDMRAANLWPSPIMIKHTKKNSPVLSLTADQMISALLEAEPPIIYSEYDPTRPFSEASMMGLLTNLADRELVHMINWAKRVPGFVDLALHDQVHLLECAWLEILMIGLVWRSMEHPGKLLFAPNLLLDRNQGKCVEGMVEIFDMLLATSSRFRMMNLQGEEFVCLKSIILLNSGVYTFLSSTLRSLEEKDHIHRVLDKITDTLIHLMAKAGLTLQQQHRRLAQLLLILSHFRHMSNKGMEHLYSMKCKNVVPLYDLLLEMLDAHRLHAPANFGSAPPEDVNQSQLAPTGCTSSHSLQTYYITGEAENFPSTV
# [3] = target: T2, estrogen receptor (ER); experiment: In vitro [3H]E2 competition assay, calf uterine extracts, free compounds; assay type: binding; settings: free compound
# Description: Assays were performed by premixing a range of concentrations of the test compound with a fixed amount of tritium labeled estradiol ([^3H]E2). Calf uterine cytosol was then added. After incubation overnight at 4° C., activated charcoal/dextran was added to remove unbound [^3H]E2. Following centrifugation to remove the charcoal/dextran, levels of bound (i.e., non-competed) [^3H]E2 were determined by liquid scintillation spectrometry. Low concentrations of test compound required to abolish [^3H]E2 binding in this assay indicate a tight association between the test compound and the ER.
# [4] = tested on: MCF-7 and MDA-MB-231 cells; experiment: Methylene blue dye binding growth assay in breast tumor cell lines; assay type: cell-based, human; settings: ED50 = concentration that inhibits cell growth by 50%
# Description: The toxicities of the preferred 2-phenylindole-C6NC2-mustard and homologous ligand decoy compounds for selected cells distinguished phenotypically from nonselected cells by expression of ER were tested using the human breast tumor cell lines, MCF-7 and MDA-MB-231, according to the guidelines set forth in Example 10 (above). The MCF-7 cell line expresses the estrogen receptor protein, while no ER protein can be detected in the MDA-MB-231 cell line.
# Both cell lines were routinely cultured in Minimal Essential Medium (MEM) supplemented with 2 mM gluatamine, 1 mM sodium pyruvate and 10% fetal calf serum. To determine the toxicity of test compounds, cells were trypsinized and plated in 100 μl of media in 96-well microtiter plates at the following densities: MCF-7, 2000 cells/well; MDA-MB-231, 1000 cells/well. Cells were allowed to grow for 24 hours in the 96-well plates prior to treatment with the compounds. […]
# Each treatment condition was conducted in replicates of 8 wells. […] On day 4, cell growth in treated and control cultures was determined using the methylene blue dye binding assay.
# A dye-binding assay as described by Finlay et al. (1984), 139 Anal. Biochem. 272 was used to assess the cytotoxic effects of 2-phenylindole-C6NC2-mustard and homologous ligand decoy compounds. […] The absorbance of the solubilized dye was read at 620 nm in a Ceres 9000 plate reader (Biotek).
# [5] = tested on: HeLa 36 (ER+) and HeLa 7 (ER-) cells; experiment: Methylene blue dye binding toxicity assay in HeLa ER transformants
compound,measurement,setting,value
"N.N.[Cl][Pt][Cl] [cisplatin, cis-diamminedichloro-platinum(II)]",binding of in vitro translated hUBF to drug-modified DNA,[1],bound
"O=C(O)CCCc1ccc(N(CCCl)CCCl)cc1 [chlorambucil, reference compound]",affinity of DNA lesions formed by the compound for ER,"[2]; isolated DNA lesioned with compound, competition with E2",no affinity
O=C(NCCCc1ccc(N(CCCl)CCCl)cc1)OCCNCCCCCCn1c(-c2ccc(O)cc2)cc2cc(O)ccc21 [2-phenylindole-C6NC2-mustard],affinity for the ER relative to estradiol (E2),[3]; calf uterine cytosol,≤ 20 fold
same,affinity for the ER (in words),[3]; competition with [3H]E2,highest affinity
same,affinity of DNA lesions formed by the compound for ER,[2],compete effectively
same,ED50 in MCF-7 relative to ED50 in MDA-MB-231,[4],two- to three-fold lower
same,differential in toxicity between HeLa 36 and HeLa 7,"[5]; 4 hr. exposure, 2.5 μM dose",approximately a two-fold differential
same,cytotoxicity in HeLa 36 cells relative to HeLa 7 cells,"[5]; 4 hr. exposure, 5 μM dose",four- to five-fold greater cytotoxicity
same,effect in HeLa 36 cells relative to HeLa 7 cells,[5]; 4 day exposure,selectively toxic and growth inhibitory effect
"N.N.[Cl][Pt][Cl] [trans-DDP, trans-Diamminedichloroplatinum (II)]",binding of in vitro translated hUBF to drug-modified DNA,[1],failed to recognize
